Paper PMC6271338, “Synthesis and Cytotoxic Evaluation of Alkoxylated Chalcones” (Molecules, 2014)

What was measured:
HeLa cells = assay: In vitro anti-proliferative SRB assay, HeLa; format: cell-based, human; details: for IC50: Homo sapiens, HeLa, increasing concentrations up to 30 μM, mean ± SD of at least three independent experiments; for SI (CC50 HMLE/IC50 Hela) / SI (CC50 L02/IC50 Hela): selectivity index; for SI (CC50 HMLE/IC50 Hela): HMLE vs HeLa; for SI (CC50 L02/IC50 Hela): L02 vs HeLa
[1] = Cytotoxicity (SRB) against non-tumoral HMLE cells; format: cell-based, human; details: human, HMLE cells (non-tumoral human mammary epithelial cells); increasing concentrations up to 100 μM; mean ± SD of at least three independent experiments; read-out: Normal Human Cell Lines, CC50, HMLE
SW1990 cells = assay: In vitro anti-proliferative SRB assay, SW1990; format: cell-based, human; details: for IC50: Homo sapiens, SW1990, increasing concentrations up to 30 μM, mean ± SD of at least three independent experiments; for SI (CC50 HMLE/IC50 SW1990) / SI (CC50 L02/IC50 SW1990): selectivity index; for SI (CC50 HMLE/IC50 SW1990): HMLE vs SW1990; for SI (CC50 L02/IC50 SW1990): L02 vs SW1990
[2] = Cytotoxicity (SRB) against non-tumoral L02 cells; format: cell-based, human; details: human, L02 cells (non-tumoral human liver cell line); increasing concentrations up to 100 μM; mean ± SD of at least three independent experiments; read-out: Normal Human Cell Lines, CC50, L02
[3] = system: five human cancer cell lines (HepG2, HeLa, MCF-7, A549 and SW1990); assay: In vitro anti-proliferative SRB assay, summary statements over the five-line panel; format: cell-based; details: most of their in vitro IC50 values against the five human cancer lines
Method: With a aim of identifying potential anticancer agents with enhanced levels of activity, as well as verifying the conclusions provided above, we took a14 as a starting compound, and then designed and synthesized a series of chalcones b1–42 bearing methoxy groups at the 2' and 6'-positions of the B-ring, whilst varying the substituents on the A-ring. The cytotoxicities of the resulting chalcones were evaluated in vitro against five human cancer cell lines and other two non-tumoral cell lines, including HepG2, HeLa, MCF-7, A549, SW1990, HMLE and L02, and the results are shown in Table 2.
HepG2 and MCF7 cells were grown in the Eagle’s minimum essential medium with Earle’s balanced salts (MEM-EBSS) medium, HeLa, A549 and L02 cells were grown in Dulbecco’s Modified Eagle Media (DMEM), SW1990 cells were grown in RPMI-1640 medium, and HMLE cell were grown in DMEM/F-12 medium. The media were supplemented with 100 U/mL penicillin, […] streptomycin and 10% fetal bovine serum (FBS), and incubated at 37 °C in a humidified atmosphere containing 5% CO2.
Cells were seeded into 96-well plates (4000 cells/well) and incubated at 37 °C in a humidified 5% CO2 atmosphere. After 24 h, the cells were treated with different concentrations of the compounds for 48 h in triplicate to generate dose-response curves. Cell viability was evaluated using the sulforhodamine B (SRB) assay as previous described. […] Etoposide was used as the positive control.

A549 cells = assay: In vitro anti-proliferative SRB assay, A549; format: cell-based, human; details: for IC50: Homo sapiens, A549, increasing concentrations up to 30 μM, mean ± SD of at least three independent experiments; for SI (CC50 HMLE/IC50 A549) / SI (CC50 L02/IC50 A549): selectivity index; for SI (CC50 HMLE/IC50 A549): HMLE vs A549; for SI (CC50 L02/IC50 A549): L02 vs A549
MCF-7 cells = assay: In vitro anti-proliferative SRB assay, MCF-7; format: cell-based, human; details: for IC50: Homo sapiens, MCF7, increasing concentrations up to 30 μM, mean ± SD of at least three independent experiments; for SI (CC50 HMLE/IC50 MCF7) / SI (CC50 L02/IC50 MCF7): selectivity index; for SI (CC50 HMLE/IC50 MCF7): HMLE vs MCF7; for SI (CC50 L02/IC50 MCF7): L02 vs MCF7
HepG2 cells = assay: In vitro anti-proliferative SRB assay, HepG2; format: cell-based, human; details: for IC50: Homo sapiens, HepG2, increasing concentrations up to 30 μM, mean ± SD of at least three independent experiments; for SI (CC50 HMLE/IC50 HepG2) / SI (CC50 L02/IC50 HepG2): selectivity index; for SI (CC50 HMLE/IC50 HepG2): HMLE vs HepG2; for SI (CC50 L02/IC50 HepG2): L02 vs HepG2

Row | Structure (SMILES) | IC50 (HeLa cells) [µM] | SI (CC50 HMLE/IC50 Hela) (HeLa cells) | SI (CC50 L02/IC50 Hela) (HeLa cells) | CC50 at 48 h [1] [µM] | melting point [°C] | IC50 (SW1990 cells) [µM] | SI (CC50 HMLE/IC50 SW1990) (SW1990 cells) | SI (CC50 L02/IC50 SW1990) (SW1990 cells) | CC50 at 48 h [2] [µM] | IC50 [3] [µM] | IC50 (A549 cells) [µM] | SI (CC50 HMLE/IC50 A549) (A549 cells) | SI (CC50 L02/IC50 A549) (A549 cells) | IC50 (MCF-7 cells) [µM] | SI (CC50 HMLE/IC50 MCF7) (MCF-7 cells) | SI (CC50 L02/IC50 MCF7) (MCF-7 cells) | IC50 (HepG2 cells) [µM] | SI (CC50 HMLE/IC50 HepG2) (HepG2 cells) | SI (CC50 L02/IC50 HepG2) (HepG2 cells)
1 | COc1ccccc1C(=O)/C=C/c1c(OC)cccc1OC [b6, (E)-1-(2-Methoxyphenyl)-3-(2,6-dimethoxyphenyl)prop-2-en-1-one] | 5 ± 0.03 | 0.8 | 1.8 | 4.01 ± 0.05 | 109 to 111.4 | 10 ± 0.14 | 0.4 | 0.9 | 8.78 ± 1.21 | < 10 | 6.35 ± 0.32 | 0.6 | 1.4 | 5.6 ± 0.17 | 0.7 | 1.6 | 2.05 ± 0.22 | 2.0 | 4.3
2 | COc1ccc(C(=O)/C=C/c2c(OC)cccc2OC)c(O)c1 [b28, (E)-1-(2-Hydroxy-4-methoxyphenyl)-3-(2,6-dimethoxyphenyl)prop-2-en-1-one] | 17 ± 0.65 | 1.0 | >5.9 | 16.2 ± 2.48 | 143.5 to 144.7 | 28.3 ± 0.26 | 0.6 | >3.5 | > 100 |  | 17.4 ± 0.97 | 0.9 | >5.8 | 28.4 ± 1.25 | 0.6 | >3.5 | 19.5 ± 0.79 | 0.8 | >5.1
3 | COc1cccc(OC)c1/C=C/C(=O)c1cccc(F)c1 [b32, (E)-1-(3-Fluorophenyl)-3-(2,6-dimethoxyphenyl)prop-2-en-1-one] | 20.7 ± 0.78 | 0.6 | 3.5 | 11.9 ± 1.28 | 105.4 to 107.3 | 28.38 ± 0.27 | 0.4 | 2.5 | 72 ± 12.1 |  | 27.2 ± 1.39 | 0.4 | 2.7 | 25.5 ± 0.78 | 0.5 | 2.8 | 21.6 ± 0.97 | 0.6 | 3.3
4 | COc1cccc(OC)c1/C=C/C(=O)c1ccc(F)cc1 [b33, (E)-1-(4-Fluorophenyl)-3-(2,6-dimethoxyphenyl)prop-2-en-1-one] | 17.4 ± 0.39 | 0.7 | 3.7 | 12.7 ± 2.35 | 108.2 to 109.6 | > 30 | <0.4 | <2.1 | 63.9 ± 13.8 |  | > 30 | <0.4 | <2.1 | 32.2 ± 1.34 | 0.4 | 2.0 | 24.6 ± 0.36 | 0.5 | 2.6
5 | COc1cccc(OC)c1/C=C/C(=O)c1ccc(Cl)cc1 [b35, (E)-1-(4-Chlorophenyl)-3-(2,6-dimethoxyphenyl)prop-2-en-1-one] | 18.4 ± 0.06 | 1.0 | 4.6 | 17.7 ± 1.35 | 107.9 to 109.7 | > 30 | <0.6 | <2.8 | 85.4 ± 6.86 |  | > 30 | <0.6 | <2.8 | 29.8 ± 0.8 | 0.6 | 2.9 | 27.1 ± 0.88 | 0.7 | 3.2
6 | COc1cccc(OC)c1/C=C/C(=O)c1cccc(Br)c1 [b36, (E)-1-(3-Bromophenyl)-3-(2,6-dimethoxyphenyl)prop-2-en-1-one] | 13.4 ± 0.44 | 1.0 | 4.6 | 13.1 ± 1.21 | 135.7 to 138.2 | 17.1 ± 0.57 | 0.8 | 3.6 | 61.2 ± 12.1 |  | 25 ± 3.17 | 0.5 | 2.4 | 23.3 ± 0.79 | 0.6 | 2.6 | 11.3 ± 1.45 | 1.2 | 5.4
7 | COc1cccc(OC)c1/C=C/C(=O)c1ccc(Cl)cc1Cl [b37, (E)-1-(2,4-Dichlorophenyl)-3-(2,6-dimethoxyphenyl)prop-2-en-1-one] | 15.7 ± 1.09 | 1.3 | >6.4 | 19.8 ± 1.44 | 111.1 to 112.7 | 15.4 ± 0.83 | 1.3 | >6.5 | > 100 |  | > 30 | <0.7 |  | 30.4 ± 0.71 | 0.7 | >3.3 | 11.7 ± 0.18 | 1.7 | >8.5
8 | COc1cccc(OC)c1/C=C/C(=O)c1ccc(Cl)c(Cl)c1 [b38, (E)-1-(3,4-Dichlorophenyl)-3-(2,6-dimethoxyphenyl)prop-2-en-1-one] | 17.6 ± 2.01 | 1.6 | >5.7 | 28.3 ± 3.74 | 142.1 to 143.4 | 26.16 ± 0.08 | 1.1 | >3.8 | > 100 |  | 27.6 ± 0.58 | 1.0 | >3.6 | 29.6 ± 2.13 | 1.0 | >3.4 | 18.6 ± 1.24 | 1.5 | >5.4
